Experiments:
[1] = Stability of HMB (and KIC) in the rumen: incubation in diluted rumen fluid; assay type: in vitro ADME, steer
Experimental: Rumen fluid was collected from a fistulated steer. After filtration and dilution (1:4) with an artificial saliva, 25ml of the solution was added to 50ml plastic tubes. Each tube was fitted with a one-way valve to allow gases to escape while not allowing air into the tube. Each tube was then gassed with C02 and incubated at 39° C. After 30 min a solution of KIC or HMB was added to the tube in concentrations to simulate what would be present in the rumen of an animal consuming .05% of the diet as KIC or HMB. It was estimated that a 50uM concentration would be attained in this case. At timed intervals 50ul samples of this rumen fluid were taken and analyzed for KIC and HMB.

lymphocytes = assay: In vitro effects of leucine or leucine metabolites on PHA-stimulated lymphocyte blastogenesis (3H-thymidine incorporation); assay type: cell-based, bovine; settings: for activation at 1000 µM: Bos taurus, Lymphocyte, 72 h, final concentration 1 mM, PHA stimulated, read-out: % Change from No Additive, in vitro lymphocyte blastogenesis (Mean Percent Change, SEM)
Experimental: Lymphocyte Blastogenesis Determinations. Blood collections, lymphocyte isolation and blastogenesis assays were performed on isolated bovine cells by using a 3-d culture procedure as described previously in Kuhlman, et al. (1988), J. Nutr., 118:1564-1569.
Isolated lymphocytes were exposed to 1 and 10 mM Leu and KIC and the metabolites isovalarate, β-hydroxy-β-methyl butyrate (HMB), β-hydroxy-β-methyl glutarate, butyrate, acetate, acetone, acetoacetate, and β-hydroxy butyrate (BOHB). The cells were then stimulated with the mitogen phytohemagglutinin, and incorporation of ^3 H-thymidine into the DNA of the dividing lymphocytes was measured.
Leucine and Leucine Metabolites. Most of the compounds listed in Table B were purchased from Sigma Chemical Company, St. Louis, MO. KIC was purchased from SOBAC (Paris, France), HMB was synthesized as described in Example 1, and the calcium salt of HMB was purified by crystallization in 95% ethanol. The calcium salt was converted to a sodium salt form and used in subsequent assays. The pH of all compounds was adjusted to approximately 7.3. Compounds were passed through a 0.2-um filter assembly to assure sterility.

[2] = rat feeding studies; cited from earlier work
[3] = cited from earlier work
T lymphocytes = settings: U.S. Pat. No. 4,835,185; cited from earlier work
[4] = U.S. Pat. No. 4,835,185; cited from earlier work
[5] = Hygroscopicity of HMB salts; assay type: physicochemical; settings: compared with Ca-HMB

SMILES: CC(C)CC(=O)C(=O)O [KIC, α-keto-isocaproic acid]
- Stability in rumen environment (in words) [1]: rapidly destroyed by the rumen bacteria
- KIC / HMB in rumen fluid ([1]; 0 min after addition, rumen fluid diluted 1:4, 39° C., initial concentration of KIC was estimated): 30 µM
- KIC / HMB in rumen fluid ([1]; 15 min after addition, rumen fluid, 39° C.): 15 µM
- KIC / HMB in rumen fluid ([1]; 30 min after addition, rumen fluid, 39° C.): 4 µM
- KIC / HMB in rumen fluid ([1]; 60 min after addition, rumen fluid, 39° C.): 2 µM
- KIC / HMB in rumen fluid ([1]; 240 min after addition, rumen fluid, 39° C.): 2 µM
- KIC / HMB in rumen fluid ([1]; 480 min after addition, rumen fluid, 39° C.): 1 µM
- Direct effect on the immune system (in words) (lymphocytes): have no effect on he immune system directly
- Effect on blastogenesis (in words) (lymphocytes): had no effects on blastogenesis
- activation at 1000 µM (lymphocytes): -3 ± 7%
- Amount of KIC required to replace leucine [2]: two to three times as much KIC as the nutritionally required amount of leucine
- Cholesterol in meat, milk and eggs (in words) ([3]; U.S. Pat. Nos. 4,760,090 and 4,760,531): cholesterol reduction in meat, milk and eggs
- Milk production (in words) ([3]; lactating domestic animals, U.S. Pat. No. 4,758,593): the quantity of milk produced may be increased
- Egg production (in words) ([3]; laying chickens, U.S. Pat. No. 4,760,531): can also sometimes be increased
- Wool production (in words) ([3]; mature sheep, U.S. Pat. No. 4,760,090): the amount of wool produced may also be increased
- Weight gain and/or feed efficiencies (in words) ([3]; milligram amounts of KIC, U.S. Pat. Nos. 4,760,090 and 4,883,817): some increases in the rates of weight gain and/or feed efficiencies
- Blastogenesis function (in words) (T lymphocytes): activating the blastogenesis function of the immune systems
- Plasma cortisol levels (in words) [4]: will usually decrease plasma cortisol levels

SMILES: CC(C)C[C@H](N)C(=O)O [Leucine, L-leucine]
- Direct effect on the immune system (in words) (lymphocytes): have no effect on he immune system directly
- Effect on blastogenesis (in words) (lymphocytes): tended to suppress blastogenesis
- activation at 1000 µM (lymphocytes): -12 ± 6%

SMILES: CC(C)(O)CC(=O)O [Na-HMB]
- Hygroscopicity (in words) [5]: more hydroscopic than Ca-HMB

SMILES: CC(O)(CC(=O)O)CC(=O)O [β-hydroxy-β-methyl glutarate]
- Effect on blastogenesis (in words) (lymphocytes): increased blastogenesis slightly
- activation at 1000 µM (lymphocytes): 28%

SMILES: CC(O)CC(=O)O (stereo not drawn) [β-hydroxybutyrate, β-hydroxy butyrate]
- Effect on blastogenesis (in words) (lymphocytes): increased blastogenesis slightly
- activation at 1000 µM (lymphocytes): 25%

From patent US4992470A, “Method of enhancing immune response of mammals” (Iowa State University Research Foundation, Inc., priority 1990, dated 1991)
